According to US11420995B2, “Anti-infective and anti-inflammatory compounds” (Synovo GmbH, priority 2017, dated 2022):

Key:
[1] = tested on: mice treated with dextran sulfate (colitis); experiment: Dextran sulfate colitis in mice (inflammatory bowel disease model); type: in vivo, mouse (C57 BLK6 or BALBc); settings: N=8; for Body weight and clinical score of BALBc mice at day 9 after commencing 2.5% DSS in water: FIG. 18
Excerpt: The potential efficacy of a Compound for Inflammatory bowel disease may be modeled as follows. C57 BLK6 or BALBc mice are provided with drinking water containing 2.5% or 2.8% dextran sulfate. Animals are weighed and observed for signs of intestinal disturbance daily. Signs include diarrhea or occult blood. Compound is formulated by mixing with a solution of 0.1 up to 1% citric acid depending on concentration. Compound is provided by oral gavage daily.

Salmonella typhimurium = experiment: Inhibition of growth of Salmonella typhimurium (optical density of culture); settings: after 9-20 h, No compound 0.943
Method: (§1) Activity of substances in the inhibition of growth of bacteria. Bacteria including the species Escherichia coli, Bacillus pumilus, Salmonella sp., Micrococcus luteus and Staphylococcus carnosus are cultured in appropriate media (Luria broth for all except S. canosus). Overnight cultures are mixed with fresh medium to reach an optical density at 600 nM of ca. 0.1 AU. These cultures are mixed with solutions of substances to be tested at concentrations ranging from 100 μM to 0.05 μM in a microtitre plate. The growth of the culture is monitored by measuring the optical density at various times after the addition of the inhibitor. Reduction in the rate of increase in optical density corresponds to an inhibition of bacterial growth.

Staphylococcus carnosus = experiment: Inhibition of growth of Staphylococcus carnosus (optical density of culture); settings: after 9-20 h, No compound 0.887
Method: as §1

[2] = tested on: Staphylococcus aureus Newman; experiment: Staphylococcus infection in mice (body weight, CFU recovered from kidney); type: in vivo; settings: for Ability of mice to clear an infection by Staphylococcus aureus Newman; bacteria quantified as CFU recovered from a standard sample of kidney: FIG. 6
[3] = tested on: Salmonella typhimurium phagocytosed by J774 murine cells; experiment: Intracellular killing of S. Typhimurium by mouse macrophage cellline J 774 A.1 (surviving CFU); type: cell-based; settings: FIG. 4; compared with azithromycin
Method: Substances may act directly on bacteria, or they may act to promote the killing of the bacteria by phagocytes. To measure this effect, cultures murine macrophages are incubated with a test bacteria and the number of bacteria surviving are counted in terms of the viable colony forming units (CFU). The method for determining the rate of phagocytosis is as follows:
Intracellular killing of S. Typhimurium by mouse macrophage cellline J 774 A.1 • seed a monolayer of cells in 200 μl Media into the wells of a 96 well plates • incubate O/N 37° C. • remove medium and add fresh medium • add Bacteria (Salmonella typhimurium) e.g. 5 μl of 1:100 diluted O/N culture (MOI=10) (=10^8 cfu/ml) • centrifuge 10 min 800 g (2000 rpm) • incubate 20-30 minutes at 37° C. (phagocytosis) • remove media • wash 1-2× with PBS • add medium with 100 μg/ml Gentamicin, stock: 10 mg/ml (=1:100) • incubate 45′ at 37° C. • wash 2× with PBS • add fresh medium (200 μl/well) • add compounds to test • incubate 2-3 hours at 37° C. • remove medium • lyse cells with water: add 200 μl H2O incubate 10′, push a few times through 27 gauge needle using a 1 ml syringe • plate […] 1:10 dilution onto LB-agar plates (=1:100 dil)
Overnight culture of Salmonella thyphimurium=˜[…]
Overnight culture of Staphylococcus carnosus=˜5×10^9 cfu/ml MOI=50 (=5 μl of 1:10 dil. O/N culture)
MOI=Multiplicity of Infection […]

Compound | Body weight and clinical score of BALBc mice at day 9 after commencing 2.5% DSS in water [1] | Absorbance of culture medium at 600 nm (Salmonella typhimurium; Conc. 0.8 μM) | Absorbance of culture medium at 600 nm (Salmonella typhimurium; Conc. 2 μM) | Absorbance of culture medium at 600 nm (Salmonella typhimurium; Conc. 3 μM) | Absorbance of culture medium at 600 nm (Salmonella typhimurium; Conc. 6 μM) | Absorbance of culture medium at 600 nm (Salmonella typhimurium; Conc. 13 μM) | Absorbance of culture medium at 600 nm (Salmonella typhimurium; Conc. 25 μM) | Absorbance of culture medium at 600 nm (Salmonella typhimurium; Conc. 50 μM) | Absorbance of culture medium at 600 nm (Salmonella typhimurium; Conc. 100 μM) | Absorbance of culture medium at 600 nm (Staphylococcus carnosus; Conc. 0.8 μM) | Absorbance of culture medium at 600 nm (Staphylococcus carnosus; Conc. 2 μM) | Absorbance of culture medium at 600 nm (Staphylococcus carnosus; Conc. 3 μM) | Absorbance of culture medium at 600 nm (Staphylococcus carnosus; Conc. 6 μM) | Absorbance of culture medium at 600 nm (Staphylococcus carnosus; Conc. 13 μM) | Absorbance of culture medium at 600 nm (Staphylococcus carnosus; Conc. 25 μM) | Absorbance of culture medium at 600 nm (Staphylococcus carnosus; Conc. 50 μM) | Absorbance of culture medium at 600 nm (Staphylococcus carnosus; Conc. 100 μM) | Ability of mice to clear an infection by Staphylococcus aureus Newman; bacteria quantified as CFU recovered from a standard sample of kidney [2] | further results
CCCC(=O)O[C@@H]1C(N(C)C)C[C@@H](C)O[C@H]1O[C@@H]1[C@@H](C)[C@]2(O)O[C@@]1(C)C[C@@H](C)CN(C)[C@H](C)[C@@H](O)[C@](C)(O)[C@@H](CC)OC(=O)[C@@H]2C (stereo partly shown) [Compound E-238] | stimulate inflammation |  |  |  |  |  |  |  |  |  |  |  |  |  |  |  |  |  | 
CCC(=O)O[C@@H]1[C@@H](C)N(C)C[C@H](C)C[C@@](C)(O)[C@H](O[C@@H]2O[C@H](C)C[C@H](N(C)C)[C@H]2O[N+](=O)[O-])[C@@H](C)[C@H](O[C@H]2C[C@@](C)(OC)[C@@H](O)[C@H](C)O2)[C@@H](C)C(=O)O[C@H](CC)[C@@]1(C)O [Compound E-5] |  | 0.574 | 0.568 | 0.511 | 0.478 | 0.437 | 0.396 | 0.395 | 0.390 | 0.819 | 0.726 | 0.805 | 0.525 | 0.452 | 0.403 | 0.347 | 0.302 | decreases recovered bacteria in a dose responsive manner | Response of mice to an infection by Staphylococcus (recovery of weight) ([2]; FIG. 5): faster recovery of weight due to faster clearance of bacteria
CC[C@H]1OC(=O)[C@H](C)[C@@H](O[C@H]2C[C@@](C)(OC)[C@@H](O)[C@H](C)O2)[C@H](C)[C@@H](O[C@@H]2O[C@H](C)CC(N(C)C)[C@H]2O[N+](=O)[O-])[C@](C)(O)C[C@@H](C)CN(C)[C@H](C)[C@@H](OC(C)=O)[C@]1(C)O (stereo partly shown) [Compound E-2] |  | 0.452 | 0.441 | 0.410 | 0.382 | 0.621 | 0.314 | 0.168 | 0.251 | 0.760 | 0.766 | 0815 | 0.626 | 0.542 | 0.456 | 0.425 | 0.395 | decreases recovered bacteria in a dose responsive manner | Killing of phagocytosed Salmonella typhimurium by murine macrophages [3]: stimulates the killing of bacterial cells by macrophages; Body weight of BALBc mice at day 7 after commencing 2.5% DSS in water ([1]; FIG. 17): protects against weight loss
CCCC(=O)O[C@@H]1[C@@H](C)N(C)C[C@H](C)C[C@@](C)(O)[C@H](O[C@@H]2O[C@H](C)CC(N(C)C)[C@H]2O)[C@@H](C)[C@H](O[C@H]2C[C@@](C)(OC)[C@@H](OC(=O)CCC)[C@H](C)O2)[C@@H](C)C(=O)O[C@H](CC)[C@@]1(C)O (stereo partly shown) [Compound E-553] | stimulate inflammation |  |  |  |  |  |  |  |  |  |  |  |  |  |  |  |  |  | 
CC[C@H]1OC(=O)[C@H](C)[C@@H](O[C@H]2C[C@@](C)(OC)[C@@H](O)[C@H](C)O2)[C@H](C)[C@@H](O[C@@H]2O[C@H](C)CC(N(C)C)[C@H]2OC(C)=O)[C@](C)(O)C[C@@H](C)CN(C)[C@H](C)[C@@H](O[N+](=O)[O-])[C@]1(C)O (stereo partly shown) [Compound E-9] |  | 0.300 | 0.272 | 0.327 | 0.348 | 0.382 | 0.395 | 0.319 | 0.221 | 0.765 | 0.737 | 0.830 | 0.752 | 0.677 | 0.426 | 0.522 | 0.545 |  | 
CC[C@H]1OC(=O)[C@H](C)[C@@H](O[C@H]2C[C@@](C)(OC)[C@@H](O)[C@H](C)O2)[C@H](C)[C@@H](O[C@@H]2O[C@H](C)C[C@H](N(C)C)[C@H]2O)[C@](C)(O)C[C@@H](C)CN(C)[C@H](C)[C@@H](O)[C@]1(C)O [Azithromycin, reference compound] |  |  |  |  |  |  |  |  |  |  |  |  |  |  |  |  |  | decreases recovered bacteria in a dose responsive manner | 
CCCCCCCCCCN(C)C1C[C@@H](C)O[C@@H](O[C@@H]2[C@@H](C)[C@H](O[C@H]3C[C@@](C)(OC)[C@@H](O)[C@H](C)O3)[C@@H](C)C(=O)O[C@H](CC)[C@@](C)(O)[C@H](O)[C@@H](C)N(C)C[C@H](C)C[C@@]2(C)O)[C@@H]1O (stereo partly shown) [Compound E-3] | stimulate inflammation |  |  |  |  |  |  |  |  |  |  |  |  |  |  |  |  |  | 
CCC(=O)O[C@@H]1C(N(C)C)C[C@@H](C)O[C@H]1O[C@@H]1[C@@H](C)[C@H](O[C@H]2C[C@@](C)(OC)[C@@H](OC(=O)CC)[C@H](C)O2)[C@@H](C)C(=O)O[C@H](CC)[C@@](C)(O)[C@H](OC(=O)CC)[C@@H](C)N(C)C[C@H](C)C[C@@]1(C)OC(=O)CC (stereo partly shown) [Compound E-51] |  |  |  |  |  |  |  |  |  |  |  |  |  |  |  |  |  |  | Body weight and clinical score of BALBc mice at day 7 after commencing 2.5% DSS in water ([1]; FIG. 19, weight greater than Vehicle): protect against inflammation
